Each molecule was assayed against T1, human FPRL1 (Homo sapiens, UniProt P25090) (assay: Measurement test of agonist activity on human FPRL1 (calcium mobilization in HEK293 cells transfected with human FPRL1 and Gα15)). Details: Fluo-4 NW, molar concentration giving 50% maximum activation, read-out: Efficacy EC50.
T1 construct: expressed in transfected cells; host or cells: HEK293 (JCRB9068, NIBIO), transient co-transfection with pCMV-script vectors
T1 sequence (P25090 1-351): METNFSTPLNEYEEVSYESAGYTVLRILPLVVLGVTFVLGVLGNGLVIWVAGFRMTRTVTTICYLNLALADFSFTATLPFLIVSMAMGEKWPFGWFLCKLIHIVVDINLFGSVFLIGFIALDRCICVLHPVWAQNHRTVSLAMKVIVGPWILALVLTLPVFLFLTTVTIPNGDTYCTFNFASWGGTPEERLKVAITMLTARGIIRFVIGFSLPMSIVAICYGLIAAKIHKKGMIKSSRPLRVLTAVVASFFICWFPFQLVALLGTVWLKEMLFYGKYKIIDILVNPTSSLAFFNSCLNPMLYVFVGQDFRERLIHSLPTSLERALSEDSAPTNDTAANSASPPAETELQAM
Assay type: cell-based
Description: Measurement test of agonist activity on human FPRL1
(1-1) Construction of Human FPRL1 Expression Vector
Human FPRL (SEQ ID NO: 3) was amplified in a PCR reaction from cDNA derived from a monocytic leukemia cell line THP-1 (TIB-202, ATCC) as a template using a forward primer shown in SEQ ID NO: 1, a reverse primer shown in SEQ ID NO: 2, and KOD-plus-ver. 2 (KOD-211, TOYOBO CO., LTD.). […] 2 (LGK-201, TOYOBO CO., LTD.). The ligation product was transformed into DH5α (DNA-901, TOYOBO CO., LTD.), cultured on a 100 μg/mL kanamycin-containing LB medium, and purified with HiSpeed Plasmid Maxi Kit (12662, QIAGEN).
(1-2) Construction of Human Gα15 Expression Vector
2. The amplified PCR product and pCMV-script vector were digested with Hind III and XhoI, and the resultant digest was ligated with Ligation high ver. 2. The ligation product was transformed into DH5α, cultured on a 100 μg/mL kanamycin-containing LB medium, and purified with HiSpeed Plasmid Maxi Kit.
(2-1) Method for Culturing and Subculturing HEK293
HEK293 (JCRB9068, NIBIO) was cultured in an incubator at 5% CO2 and 37° C. using DMEM (11885-092, GIBCO) containing 10% FBS and 1cPenicillin-Streptomycin (15140-122, GIBCO).
(2-2) Introduction of Human FPRL1 and Gal5 Expression Vectors
The cells were inoculated in a Collagen Type 1 coated 6-well plate (4810-010, IWAKI) to 5×10^5 cells/2.5 mL/well and cultured overnight. On the next day, human FPRL1 and Gα15 expression vectors were introduced using Lipofectamine 2000 transfection reagent (11668-019, Life technologies). First, the human FPRL1 and Gal5 expression vectors were diluted with Opti-MEM I Reduced Serum Medium (31985-070, GIBCO) to 2 μg/250 μL/well and Lipofectamine 2000 transfection reagent was diluted with Opti-MEM I Reduced Serum Medium to be 4 μL/250 μL/well. The vectors and reagent were softly diffused, and incubated at room temperature for 5 minutes. The vector solution was mixed with Lipofectamine 2000 transfection reagent in equal amounts. In order to form a complex of the vectors and Lipofectamine 2000 transfection reagent, the mixture was incubated at room temperature for 20 minutes, and added at 500 μL/well to the medium of inoculated cells. The treated cells were cultured for 24 hours, inoculated in Poly-D-Lysine coated 96-well plate (356640, BD Biosciences) at a cell density of 7×10^4 cells/100 μL/well, and cultured for another 24 hours. The resultant cells were used in a measurement test of calcium mobilization in the cells.
(3) Evaluation of Agonist Activity on Human FPRL1 (Test of Calcium Mobilization in Cell)
An appropriate amount of each test compound was first weighed, and dissolved to 10^−2 M by addition of dimethyl sulfoxide (DMSO). […] The plate dispensed with compound solutions was set in Flexstation (Molecular Devices, LLC.) until measurement.
Subsequently, 10 mL of assay buffer and 100 μL of probenecid solution (dissolved by addition of 1 mL of assay buffer to a 250 mM stock) were sufficiently mixed and dissolved in Fluo-4 NW dye mix. The medium of cells inoculated on the previous day was removed, the dissolved Fluo-4 NW dye mix was added in an amount of 90 μL/well, and a reaction was caused in the dark at 37° C. for 45 minutes. The cells after the reaction and chips for addition of the compound were set in Flexstation, and variation in fluorescence intensity over time after addition of the compound was measured [amount of added compound=10 μL (final concentration: 10^−5 M to 10^−12 M), excitation wavelength: 485 nm, measured wavelength: 525 nm, 1.5 sec×54 read]. A value was calculated by subtracting a base value during addition of DMSO from the maximum value of relative fluorescence unit, and analyzed. All the measurement data were analyzed with Prism 4 that was a data analysis tool.

| Compound | EC50 |
| --- | --- |
| COc1ccc([C@@H]2Cn3nnnc3[C@H]2NC(=O)Nc2ccc(F)cc2)cc1 (single isomer, unassigned) [Example 7-3, (−)-1-(4-fluorophenyl)-3-[(6R*,7S*)-6-(4-methoxyphenyl)-6,7-dihydro-5H-pyrrolo[1,2-d]tetrazol-7-yl]urea] | 0.6 nM |
| COc1ccc(C2CS(=O)(=O)CC2NC(=O)Nc2ccc(Cl)cc2)cc1 (racemic) [Example 1-10, (±)-1-(4-chlorophenyl)-3-[4-(4-methoxyphenyl)-1,1-dioxideterrahydrothiophen-3-yl]urea] | 0.29 nM |
| COc1cc(F)c([C@@H]2CN3C(=O)CON=C3[C@H]2NC(=O)Nc2ccc(F)cc2)c(F)c1 (single isomer, unassigned) [Example 8-1, (−)-1-[(7R*,8S*)-7-(2,6-Difluoro-4-methoxyphenyl)-4-oxo-4,6,7,8-tetrahydro-3H-pyrrolo[2,1-c][1,2,4]oxadiazin-8-yl]-3-(4-fluorophenyl)urea] | 0.03 nM |
| COc1cc(F)c([C@@H]2COC[C@@H]2NC(=O)Nc2ccc(F)cc2)c(F)c1 (racemic) [Example 1-8, (±)-cis-1-[4-(2,6-difluoro-4-methoxyphenyl)-tetrahydrofuran-3-yl]-3-(4-fluorophenyl)urea] | 3.78 nM |
| COc1ccc([C@@H]2COC[C@@H]2NC(=O)Nc2ccc(F)c(F)c2)cc1 (racemic) [Example 1-5, (±)-cis-1-(3,4-difluorophenyl)-3-[4-(4-methoxyphenyl)tetrahydrofuran-3-yl]urea] | 12 nM |
| COc1ccc(C2COC(=O)N2NC(=O)Nc2ccc(Cl)cc2)cc1 (racemic) [Example 5-4, (±)-1-(4-chlorophenyl)-3-[4-(4-methoxyphenyl)-2-oxooxazolidin-3-yl]urea] | 2.6 nM |
| COc1ccc([C@@H]2CC(=O)N[C@H]2NC(=O)Nc2ccc(F)cc2)cc1 (racemic) [Example 6-1, (±)-trans-1-(4-Fluorophenyl)-3-[3-(4-methoxyphenyl)-5-oxopyrrolidin-2-yl]urea] | 5.6 nM |
| O=C(Nc1ccc(F)cc1)N[C@@H]1c2nnnn2C[C@H]1c1cc2c(cc1F)OCC2 (single isomer, unassigned) [Example 7-5, (−)-1-[(6R*,7S*)-6-(6-fluoro-2,3-dihydrobenzofuran-5-yl)-6,7-dihydro-5H-pyrrolo[1,2-d]tetrazol-7-yl]-3-(4-fluorophenyl)urea] | 2.5 nM |
| COc1cc(F)c([C@@H]2Cn3c(C)nnc3C2NC(=O)Nc2ccc(F)cc2)c(F)c1 (single isomer, unassigned; (-)) [Example 7-1, (−)-1-[(6R*,7S*)-6-(2,6-Difluoro-4-methoxyphenyl)-3-methyl-6,7-dihydro-5H-pyrrolo[2,1-c][1,2,4]triazol-7-yl]-3-(4-fluorophenyl)urea] | 0.05 nM |
| COc1ccc([C@@H]2COC[C@@H]2NC(=O)Nc2ccc(Cl)s2)cc1 (racemic) [Example 1-7, (±)-cis-1-(5-chlorothiophen-2-yl)-3-[4-(4-methoxyphenyl)-tetrahydrofuran-3-yl]urea] | 5.2 nM |
| COc1cc(F)c([C@@H]2CN3C(=O)CCN=C3[C@H]2NC(=O)Nc2ccc(F)cc2)c(F)c1 (single isomer, unassigned) [Example 9-1, (−)-1-[(7R*,8S*)-7-(2,6-Difluoro-4-methoxyphenyl)-4-oxo-2,3,4,6,7,8-hexahydropyrrolo[1,2-a]pyrimidin-8-yl]-3-(4-fluorophenyl)urea] | 0.03 nM |
| O=C(Nc1ccc(F)cc1)NC1COC[C@H]1c1ccc(Cl)cc1 (mixture of isomers) [Example 5-1, (±)-cis-1-[4-(4-Chlorophenyl)tetrahydrofuran-3-yl]-3-(4-fluorophenyl)urea] | 14 nM |
| COc1ccc([C@@H]2COC[C@H]2NC(=O)Nc2ccc(Cl)cc2)cc1 (racemic) [Example 1-9, (±)-trans-1-(4-chlorophenyl)-3-[4-(4-methoxyphenyl)tetrahydrofuran-3-yl]urea] | 2.3 nM |
| COc1ccc([C@@H]2COC[C@@H]2NC(=O)Nc2ccc(C#N)cc2)cc1 (racemic) [Example 1-6, (±)-cis-1-(4-cyanophenyl)-3-[4-(4-methoxyphenyl)-tetrahydrofuran-3-yl]urea] | 10 nM |
| COc1ccc([C@@H]2COC[C@@H]2NC(=O)Nc2ccc(Cl)cc2)cc1 (racemic) [Example 1-1, (±)-cis-1-(4-Chlorophenyl)-3-[4-(4-methoxyphenyl)tetrahydrofuran-3-yl]urea] | 0.25 nM |
| COc1cc(F)c([C@@H]2Cn3ccnc3[C@H]2NC(=O)Nc2ccc(F)cc2)c(F)c1 (single isomer, unassigned) [Example 7-2, (−)-1-[(6R*,7S*)-6-(2,6-difluoro-4-methoxyphenyl)-6,7-dihydro-5H-pyrrolo[1,2-a]imidazol-7-yl]-3-(4-fluorophenyl)urea] | 0.25 nM |
| COc1ccc([C@@H]2CCNC(=O)C2NC(=O)Nc2ccc(Cl)cc2)cc1 (mixture of isomers) [Example 1-11, (±)-trans-1-(4-chlorophenyl)-3-[4-(4-methoxyphenyl)-2-oxopiperidin-3-yl]urea] | 0.11 nM |
| COc1cc(F)c([C@@H]2CN3CCCN=C3[C@H]2NC(=O)Nc2ccc(F)cc2)c(F)c1 (single isomer, unassigned) [Example 7-6, (−)-1-[(7R*,8S*)-7-(2,6-difluoro-4-methoxyphenyl)-2,3,4,6,7,8-hexahydropyrrolo[1,2-a]pyrimidin-8-yl]-3-(4-fluorophenyl)urea] | 0.97 nM |
| COc1ccc([C@@H]2CN3C(=O)CON=C3[C@H]2NC(=O)Nc2ccc(F)cc2)cc1 (relative stereo) [Example 10-1, 1-(4-Fluorophenyl)-3-[(7R*,8S*)-7-(4-methoxyphenyl)-4-oxo-4,6,7,8-tetrahydro-3H-pyrrolo[2,1-c][1,2,4]oxadiazin-8-yl]urea] | 0.29 nM |
| COc1cc(F)c([C@@H]2Cn3nnnc3[C@H]2NC(=O)Nc2ccc(F)cc2)c(F)c1 (single isomer, unassigned) [Example 7-4, (−)-1-[(6R*,7S*)-6-(2,6-difluoro-4-methoxyphenyl)-6,7-dihydro-5H-pyrrolo[1,2-d]tetrazol-7-yl]-3-(4-fluorophenyl)urea] | 0.36 nM |
